Measurements taken from the OPERA property sets (Mansouri et al. 2018).
Where a SMILES comes first, the peptide text is derived from it.

| Compound | logP |
| --- | --- |
| Cc1nc2ccccc2c(=O)n1CC(=O)NNc1ccccc1 | 1.34 |
| CN(c1ccc2cc3ccc4c(c3nc2c1)COCN4)S(C)(=O)=O | 1.54 |
| c1ccc(CCCNc2[nH]cnc3ncnc2-3)cc1 | 2.85 |
| O=C(O)Cc1ccccc1Nc1c(F)cccc1F | 3.57 |
| COc1cc(OC)nc(Oc2cccc(Oc3ccccc3)c2C(=O)O)n1 | 3.43 |
| Cc1nc2ccccc2c(=O)n1CC(=O)N1CCOCC1 | 0.36 |
| Cc1cn(C2C=CC(COP3(=O)OCc4ccccc4O3)O2)c(=O)[nH]c1=O (stereo unspecified) | 0.28 |
| COC(=O)c1cc(NC(=O)Cn2c(C)nc3ccccc3c2=O)cc(C(=O)OC)c1 | 2.98 |
| NC(Cc1ccccc1)C(=O)N1CCCC1C(=O)O (stereo not drawn) (H-Phe-Pro-OH; configuration not given here) | -1.23 |
| Cc1cccc(Nc2ccncc2S(=O)(=O)NC(=O)NC(C)C)c1 | 3.37 |
| CCCCCC(O)C=CC1C(O)CC(O)C1CC=CCCCC(=O)OCc1ccccc1 (stereo unspecified) | 4.11 |
| COCCOC(=O)C1=C(C)NC(C)=C(C(=O)OCCOC)C1c1cccc2c1OCO2 | 2.93 |
| Cc1c(C(=O)O)cccc1[N+](=O)[O-] | 2.16 |
| OCCCCCCCCCNc1[nH]cnc2ncnc1-2 | 2.75 |
| C[N+](C)([O-])CC(c1ccccc1)c1ccccc1 | 1.01 |
| CCCSc1cccc2nc(N)nc(N)c12 | 2.85 |
| Nc1n[n+]([O-])c2ccccc2[n+]1[O-] | -0.3 |
| COc1ccc(CNCC(O)CON=C(C2CC2)C2CC2)c(OC)c1 (stereo unspecified) | 2.22 |
| Clc1cc(Br)cc(Cl)c1N=C1NCCN1 | 2.46 |
| O=C(OC1Cc2c(O)cc(O)cc2OC1c1ccc(O)c(O)c1)c1ccccc1 (stereo unspecified) | 3.44 |
| CCCCOc1cccc(NC(=O)OCCN2CCCCC2)c1 | 5.04 |
| Brc1c2ccccc2c(Br)c2ccccc12 | 6.29 |
| CCCc1c(C)nc2cccc(C)n2c1=O | 2.22 |

| Compound | logP |
| --- | --- |
| Cc1oc2c(C)cc3c(C)cc(=O)[nH]c3c2c1C | 3.5 |
| NC(Cc1ccc(O)cc1)C(=O)N1CCCC1C(=O)NCC(=O)NC(Cc1c[nH]c2ccccc12)C(=O)O (stereo unspecified) (H-YPGW-OH; configuration not given here) | -1.25 |
| COc1c([N+](=O)[O-])cc(C(=O)O)cc1[N+](=O)[O-] | 1.73 |
| CCCCCNC(=O)N1C(=O)N(C)CC1O (stereo unspecified) | 1.75 |
| CCOC(=O)C1=C(C)NC(C)=C(C(=O)OC)C1c1cc(OC)cc(OC)c1 (stereo unspecified) | 4.08 |
| CCCCCCCNC1=NS(=O)N=C1NCCSCc1ccc(CN(C)C)o1 (stereo unspecified) | 3.91 |
| Cc1nc2c3c(c(C(=O)N(C)C)cn2c1C)CCC(c1cccs1)O3 (stereo unspecified) | 2.8 |
| COC(=O)C(C)NP(=O)(OCC1C=CC(n2cc(C)c(=O)[nH]c2=O)O1)Oc1cccc(C(C)=O)c1 (stereo unspecified) | 0.92 |
| Cc1ccccc1Cc1c[nH]cn1 | 2.31 |
| Brc1cc(Br)c(-c2ccccc2)c(Br)c1 | 6.03 |
| CN1COCc2c1ccc1cc3ccc(N)c(CO)c3nc21 | 1.64 |
| CC(C)NC(=O)N1C(=O)N(C)CC1O (stereo unspecified) | 0.96 |
| CN(C)C(C)(C)O | 0.2 |
| COc1ccc(CCNCC(O)COc2ccc(-c3nc(C)c(Br)[nH]3)cc2)cc1OC (stereo unspecified) | 3.9 |
| CC(C)CC(N)C(=O)N1CCCC1C(=O)O (stereo not drawn) (H-Leu-Pro-OH; configuration not given here) | -1.76 |
| CN(C)C(=O)Nc1cccc(OCc2ccc(Cl)cc2Cl)c1 | 4.1 |
| CCOC(=O)C1=C(C)NC(C)=C(C(=O)OC)C1c1cc(OC)c(OC)c(OC)c1 (stereo unspecified) | 3.39 |
| CCC(C)C(NC(C)=O)C(=O)NC(Cc1ccccc1)C(=O)NC(CCCNC(=N)N)C(N)=O (stereo not drawn) (Ac-Ile-Phe-Arg-NH2; configuration not given here) | -0.05 |
| S=c1[nH]nc(Cn2ccc3ccccc32)n1-c1ccccc1 | 2.68 |
| CCCc1nc(NC(C)C)nc(N2CCOCC2)n1 | 2.26 |
| CC(C)CC(NC(=O)C(CC(C)C)NC(=O)C(C)NC(=O)C(C)NC(=O)CN)C(=O)O (stereo unspecified) (H-GAALL-OH; configuration not given here) | -2.55 |
| C/C(=C\CNc1ncnc2[nH]cnc12)CO | 0.6 |
| c1ccc2c(c1)OCCOCCOc1ccccc1OCCO2 | 2.21 |
